Literature values in US9057089B2, “Methods for natural product optimization” (The University of Wyoming, priority 2008, dated 2015).

Key:
RpoB-V1275F mutant = settings: rpoB Val→Phe substitution (position 1275)
[1] = system: transpeptidases (penicillin binding proteins, PBPs)
peptidoglycan synthesis = settings: metabolic labeling
[2] = in vivo
[3] = system: fungi, protozoa, or eukaryotic cells
[4] = human clinical trials

C/C(=C\Cc1ccccc1)CCC(=O)C[C@H]1C[C@H](O)C/C(C)=C/C/C=C/C/C(CC(=O)O)=C\C(=O)O1 [Rip, ripostatin]
increase of antibiotic MIC values relative to wild type cells (RpoB-V1275F mutant): > 16 fold

CCCC1OC(=O)C(C)CC(C)CCCCC(=O)CCCC(CC)/C=C/C=C(\COC)CCC(O)C(O)CC(O)CNC1=O (centres unmarked) [Antibiotic TA, myxovirescin]
inhibition of final cross-linking step catalyzed by transpeptidases [1]: does not inhibit | peptidoglycan synthesis (peptidoglycan synthesis): blocks peptidoglycan synthesis | safety [2]: safe | activity on fungi, protozoa, or eukaryotic cells [3]: not active | therapeutic effect in periodontal diseases [4]: effective therapeutic | three indices (plaque, gingival, and bleeding) ([4]; only two treatments): significantly improved | effect of sera on activity (growing E. coli cells; sera): not inhibited by sera | growing E. coli cells killed (growing E. coli cells; within 30 minutes at 2 μg/ml): 99%

myxopyronin
increase of antibiotic MIC values relative to wild type cells (RpoB-V1275F mutant): > 32 fold

C/C=C/C/C=C(\C)C(O)CC/C(C)=C/C=C(\C)C(=O)c1c(O)cc([C@H](C)CC/C=C/NC(=O)OC)oc1=O (some centres unmarked) [Cor, corallopyronin]
increase of antibiotic MIC values relative to wild type cells (RpoB-V1275F mutant): > 8 fold
